# From the supplement of paper PMC10307832
# Columns and labels:
# Test in all cases: relative viability (nuclei count vs DMSO), 5 days (fraction); higher = more cells survive
# [1] = tested on: COR-L 105
# How it was run: (§1)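 Lung cancer cell lines in 1536-well plates got either a single drug or a fixed anchor-drug dose together with five library-drug doses (not always all listed) in √10 steps, by pin tool, on the day after seeding. Nuclei were counted after 5 days, and relative viability is the treated-to-vehicle ratio of nuclei counts. Values are medians of duplicate plates.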
# [2] = tested on: NCI-H1915
# How it was run: as §1
# [3] = tested on: NCI-H650
# How it was run: as §1
# [4] = tested on: NCI-H2347
# How it was run: as §1
# [5] = tested on: NCI-H522
# How it was run: as §1
# [6] = tested on: ChaGo-K-1
# How it was run: as §1
# [7] = tested on: LCLC-97TM1
# How it was run: as §1
# [8] = tested on: NCI-H647
# How it was run: as §1
# [9] = tested on: EPLC-272H
# How it was run: as §1
# [10] = tested on: NCI-H520
# How it was run: as §1
# [11] = tested on: NCI-H322M
# How it was run: as §1
# [12] = tested on: NCI-H661
# How it was run: as §1
# [13] = tested on: NCI-H2087
# How it was run: as §1
# [14] = tested on: 201T
# How it was run: as §1
# [15] = tested on: H3255
# How it was run: as §1
# [16] = tested on: RERF-LC-KJ
# How it was run: as §1
# [17] = tested on: PC-14
# How it was run: as §1
# [18] = tested on: NCI-H2126
# How it was run: as §1
# [19] = tested on: NCI-H23
# How it was run: as §1
# [20] = tested on: NCI-H1666
# How it was run: as §1
# [21] = tested on: HCC-827
# How it was run: as §1
# [22] = tested on: LC-2-ad
# How it was run: as §1
# [23] = tested on: HCC-78
# How it was run: as §1
# [24] = tested on: NCI-H2405
# How it was run: as §1
compound,measurement,setting,value
COc1cc(N2CCC(C(N)=O)CC2)ccc1Nc1nc(N)c(Cl)c(Nc2ccccc2S(=O)(=O)C(C)C)n1 [HG-5-88-01] + CC(=O)Nc1cccc(-n2c(=O)n(C3CC3)c(=O)c3c(Nc4ccc(I)cc4F)n(C)c(=O)c(C)c32)c1 [Trametinib] (partner 0.02 µM),relative viability,[1]; first compound 0.04 µM,0.471
same,relative viability,[1]; first compound 0.1265 µM,0.423
same,relative viability,[1]; first compound 0.4 µM,0.402
same,relative viability,[1]; first compound 1.265 µM,0.319
same,relative viability,[1]; first compound 4 µM,0.421
same,relative viability,[2]; first compound 0.04 µM,0.327
same,relative viability,[2]; first compound 0.1265 µM,0.338
same,relative viability,[2]; first compound 0.4 µM,0.353
same,relative viability,[2]; first compound 1.265 µM,0.313
same,relative viability,[2]; first compound 4 µM,0.317
same,relative viability,[3]; first compound 0.04 µM,1.09
same,relative viability,[3]; first compound 0.1265 µM,1.11
same,relative viability,[3]; first compound 0.4 µM,0.987
same,relative viability,[3]; first compound 1.265 µM,0.696
same,relative viability,[3]; first compound 4 µM,0.786
same,relative viability,[4]; first compound 0.04 µM,0.324
same,relative viability,[4]; first compound 0.1265 µM,0.284
same,relative viability,[4]; first compound 0.4 µM,0.227
same,relative viability,[4]; first compound 1.265 µM,0.229
same,relative viability,[4]; first compound 4 µM,0.247
same,relative viability,[5]; first compound 0.04 µM,0.683
same,relative viability,[5]; first compound 0.1265 µM,0.784
same,relative viability,[5]; first compound 0.4 µM,0.695
same,relative viability,[5]; first compound 1.265 µM,0.705
same,relative viability,[5]; first compound 4 µM,0.636
same,relative viability,[6]; first compound 0.04 µM,0.868
same,relative viability,[6]; first compound 0.1265 µM,0.908
same,relative viability,[6]; first compound 0.4 µM,0.843
same,relative viability,[6]; first compound 1.265 µM,0.925
same,relative viability,[6]; first compound 4 µM,0.875
same,relative viability,[7]; first compound 0.04 µM,0.154
same,relative viability,[7]; first compound 0.1265 µM,0.211
same,relative viability,[7]; first compound 0.4 µM,0.188
same,relative viability,[7]; first compound 1.265 µM,0.147
same,relative viability,[7]; first compound 4 µM,0.136
same,relative viability,[8]; first compound 0.04 µM,0.436
same,relative viability,[8]; first compound 0.1265 µM,0.444
same,relative viability,[8]; first compound 1.265 µM,0.488
same,relative viability,[8]; first compound 4 µM,0.527
same,relative viability,[9]; first compound 0.04 µM,0.316
same,relative viability,[9]; first compound 0.1265 µM,0.308
same,relative viability,[9]; first compound 0.4 µM,0.279
same,relative viability,[9]; first compound 1.265 µM,0.205
same,relative viability,[9]; first compound 4 µM,0.0984
same,relative viability,[10]; first compound 0.04 µM,0.568
same,relative viability,[10]; first compound 0.1265 µM,0.831
same,relative viability,[10]; first compound 0.4 µM,0.617
same,relative viability,[10]; first compound 1.265 µM,0.74
same,relative viability,[10]; first compound 4 µM,0.634
same,relative viability,[11]; first compound 0.04 µM,0.486
same,relative viability,[11]; first compound 0.1265 µM,0.459
same,relative viability,[11]; first compound 0.4 µM,0.524
same,relative viability,[11]; first compound 1.265 µM,0.36
same,relative viability,[11]; first compound 4 µM,0.451
same,relative viability,[12]; first compound 0.04 µM,0.591
same,relative viability,[12]; first compound 0.1265 µM,0.666
same,relative viability,[12]; first compound 0.4 µM,0.573
same,relative viability,[12]; first compound 1.265 µM,0.554
same,relative viability,[12]; first compound 4 µM,0.608
same,relative viability,[13]; first compound 0.04 µM,0.238
same,relative viability,[13]; first compound 0.1265 µM,0.218
same,relative viability,[13]; first compound 0.4 µM,0.194
same,relative viability,[13]; first compound 1.265 µM,0.15
same,relative viability,[13]; first compound 4 µM,0.164
same,relative viability,[14]; first compound 0.04 µM,0.697
same,relative viability,[14]; first compound 0.1265 µM,0.699
same,relative viability,[14]; first compound 1.265 µM,0.694
same,relative viability,[14]; first compound 4 µM,0.782
same,relative viability,[15]; first compound 0.04 µM,0.563
same,relative viability,[15]; first compound 0.1265 µM,0.697
same,relative viability,[15]; first compound 0.4 µM,0.619
same,relative viability,[15]; first compound 4 µM,0.539
same,relative viability,[16]; first compound 0.04 µM,0.79
same,relative viability,[16]; first compound 0.1265 µM,0.902
same,relative viability,[16]; first compound 0.4 µM,0.744
same,relative viability,[16]; first compound 1.265 µM,0.713
same,relative viability,[16]; first compound 4 µM,0.714
same,relative viability,[17]; first compound 0.04 µM,0.825
same,relative viability,[17]; first compound 0.1265 µM,0.836
same,relative viability,[17]; first compound 0.4 µM,0.626
same,relative viability,[17]; first compound 1.265 µM,0.28
same,relative viability,[17]; first compound 4 µM,0.0722
same,relative viability,[18]; first compound 0.04 µM,0.592
same,relative viability,[18]; first compound 0.1265 µM,0.564
same,relative viability,[18]; first compound 0.4 µM,0.557
same,relative viability,[18]; first compound 1.265 µM,0.543
same,relative viability,[18]; first compound 4 µM,0.558
same,relative viability,[19]; first compound 0.04 µM,0.383
same,relative viability,[19]; first compound 0.1265 µM,0.336
same,relative viability,[19]; first compound 0.4 µM,0.366
same,relative viability,[19]; first compound 1.265 µM,0.28
same,relative viability,[19]; first compound 4 µM,0.247
same,relative viability,[20]; first compound 0.04 µM,0.942
same,relative viability,[20]; first compound 0.1265 µM,0.918
same,relative viability,[20]; first compound 0.4 µM,0.853
same,relative viability,[20]; first compound 1.265 µM,0.775
same,relative viability,[20]; first compound 4 µM,0.621
same,relative viability,[21]; first compound 0.04 µM,0.529
same,relative viability,[21]; first compound 0.1265 µM,0.463
same,relative viability,[21]; first compound 0.4 µM,0.538
same,relative viability,[21]; first compound 1.265 µM,0.18
same,relative viability,[21]; first compound 4 µM,0.269
same,relative viability,[22]; first compound 0.04 µM,0.934
same,relative viability,[22]; first compound 0.1265 µM,0.86
same,relative viability,[22]; first compound 0.4 µM,0.865
same,relative viability,[22]; first compound 1.265 µM,0.896
same,relative viability,[22]; first compound 4 µM,0.993
same,relative viability,[23]; first compound 0.04 µM,0.737
same,relative viability,[23]; first compound 0.1265 µM,0.455
same,relative viability,[23]; first compound 0.4 µM,0.492
same,relative viability,[23]; first compound 1.265 µM,0.289
same,relative viability,[23]; first compound 4 µM,0.348
same,relative viability,[24]; first compound 0.04 µM,0.676
same,relative viability,[24]; first compound 0.1265 µM,0.706
same,relative viability,[24]; first compound 0.4 µM,0.529
same,relative viability,[24]; first compound 1.265 µM,0.455
same,relative viability,[24]; first compound 4 µM,0.545
